“And” between values parts separate entries of the source, which are not always exact repeats. Equal values may be shown once.
Key:
Format in all cases: in vivo
[1] = test system: spontaneous type II diabetic db/db mice; assay: Kidney histopathology grading after treatment; set-up: key to kidney / Basophilic changes in renal tubules / Monocyte infiltration / Hypertrophy of renal tubular epithelial cells / Dilation of the renal pelvis / Protein casts / Glomerular dilation / Glomerulosclerosis: “N” means normal tissue morphology and structure; “E” means changed tissue morphology and structure; “—” means no such pathological change; conditions: 12 weeks
Experimental: (§1) Design of test groups: db/m group, db/db mice are divided into the following six groups: blank control group (no glucose), negative control group (model group), positive control group (350 mg/kg metformin), H2 low dose group (40 mg/kg), H2 medium dose group (80 mg/kg), H2 high dose group (160 mg/kg); • Number of animals: 12 mice for each group; • Sex: male;
(§2) Administration frequency: once a day, for 12 weeks; db/m group, blank control group and negative control group: receiving distilled water; positive control group: positive drug metformin; other administration groups: receiving different dose of test drug H2, respectively; the day of administration was defined as the first day of the test.
After completion of the test, the kidney was dissected and collected. The histopathological results of the kidney indicated the grades by referring to the principles and standards in literature
(Fermented Milk has Anti-diabetic Effects: Anti-diabetic Effect of Fermented Milk Containing Conjugated Linoleic Acid on Type II Diabetes Mellitus, Korean J. Food Sci. An., Vol. 36, No. 2 (2016)).

[2] = test system: spontaneous type II diabetic db/db mice; assay: Hypoglycemic effect test: tail vein blood glucose during 12 weeks of dosing
Experimental: as §1, §2
Sampling frequency: blood glucose was detected once every 2 weeks after grouping, and then after glucose was administrated, the blood glucose was further measured. Sampling site: tail vein; sampling volume: about 1 drop; blood glucose detection: real-time detection by blood glucose meter.

[3] = test system: spontaneous type II diabetic db/db mice; assay: Kidney function: blood urea nitrogen (UREA), blood creatinine (CREA) and renal index before and after administration; conditions: MEAN ± SEM
Experimental: as §1, §2
(1) Changes of blood urea nitrogen (UREA) and blood creatinine (CREA) as well as renal index before and after administration

[4] = test system: spontaneous type II diabetic db/db mice; assay: Prevention and treatment of retinopathy: pathological staining of eyeball, grading of retinal ganglion cell layer degeneration; set-up: key to Left eye / Right eye / Retinal degeneration, ganglion cell layer (right eye) / Retinal degeneration, ganglion cell layer (left eye): “N” means normal tissue morphology and structure; “E” means changed tissue morphology and structure; “—” means no such pathological change; conditions: 12 weeks
Experimental: as §1, §2
During the test period, compared with the animals in normal control group, the retinal ganglion cell layer of animals in each group had different degrees of degeneration except for the test drug H2 high-dose group. According to the severity of the degeneration of the retinal ganglion cell layers, there were 0-4 grades according to the pathological grading principle in the literature
(Fermented Milk has Anti-diabetic Effects: Anti-diabetic Effect of Fermented Milk Containing Conjugated Linoleic Acid on Type II Diabetes Mellitus, Korean J. Food Sci. An., Vol. 36, No. 2 (2016)). The larger the value, the more severe the disease.

[5] = metformin 350 mg/kg oral gavage once a day, individual animals
[6] = metformin 350 mg/kg oral gavage once a day, individual animals, grade
[7] = metformin 350 mg/kg oral gavage once a day, MEAN ± SEM
[8] = metformin 350 mg/kg oral gavage once a day, 12 weeks
[9] = metformin 350 mg/kg oral gavage once a day, individual animals, grades 0-4, larger = more severe

SMILES: CN(C)C(=N)N=C(N)N [metformin, Metformin]
- kidney [1, 5]: E
- Basophilic changes in renal tubules [1, 6]: — (8×) and 1
- Dilation of the renal pelvis [1, 6]: —
- Glomerular dilation [1, 6]: —
- Glomerulosclerosis [1, 6]: 1 and — (8×)
- Hypertrophy of renal tubular epithelial cells [1, 6]: —
- Monocyte infiltration [1, 6]: —
- Proliferation of glomerular mesangum or mesangial cells [1, 6]: 1 (3×) and 2 (6×)
- Protein casts [1, 6]: —
- Proliferation of glomerular mesangum or mesangial cells (in words) ([1]; metformin 350 mg/kg, no statistical difference vs. negative control group): showed the effect trend of alleviating the proliferation of glomerular mesangum or mesangial cells
- Blood glucose concentration, Administrating for 15 days [2, 7]: 6.95 ± 0.57 mmol/L
- Blood glucose concentration, Administrating for 29 days [2, 7]: 8.30 ± 0.94 mmol/L
- Blood glucose concentration, Administrating for 43 days [2, 7]: 8.93 ± 1.15 mmol/L
- Blood glucose concentration, Administrating for 57 days [2, 7]: 8.92 ± 1.12 mmol/L
- Blood glucose concentration, Administrating for 72 days [2, 7]: 8.80 ± 1.11 mmol/L
- Blood glucose concentration, Administrating for one day [2, 7]: 13.78 ± 1.74 mmol/L
- Hypoglycemic effect (in words) ([2]; metformin 350 mg/kg, vs. negative control group, from the 15th day, P<0.001): could significantly reduce the blood sugar of db/db mice
- Before administration CREA ([3]; metformin 350 mg/kg group, before administration (baseline)): 4.50 ± 1.38 µmol/L
- Change rate of CREA [3, 8]: 0.83 ± 0.17
- Renal index [3, 8]: 0.43 ± 0.03%
- Left eye [4, 5]: E (3×) and N (6×)
- Right eye [4, 5]: N (8×) and E
- Retinal degeneration, ganglion cell layer (left eye) [4, 9]: 2 (2×) and — (6×) and 1
- Retinal degeneration, ganglion cell layer (right eye) [4, 9]: — (8×) and 1
- Improvement of retinopathy (in words) ([4]; metformin 350 mg/kg, vs. negative control group): hardly improved the symptoms of retinopathy

Source: patent US20210346414A1, “APPLICATION OF GLYCOSIDES IN THE PREPARATION OF DRUGS FOR PREVENTING AND TREATING DIABETES COMPLICATIONS” (CHENGDU SINNOCEAN BIOTECHNOLOGY CO., LTD., priority 2018, published 2021)
